Source: patent publication US20040214270A1, “Isocitrate dehydrogenase, gene thereof, and use of the same in the treatment of obesity, hyperlipidemia, and fattly liver in lipid biosynthesis” (priority 2000, published 2004)
“Also recorded” adds a separate entry of the source. Values belong to the molecule of their own block, whether it stands above or below them.

How the values were obtained:
[1] = system: NIH3T3 L1 cells into which only pLNCX vector was introduced; assay: Differentiation of adipocytes and oil deposition according to concentration of NADPH (Oil-Red-O); format: cell-based, mouse
Procedure: To examine the influence of IDPc on the synthesis of fatty acids, the transfectant cell lines were cultured in 10% FBS-supplemented DMEM containing insulin 5 μg/ml, 0.5 mM 3-isobutyl-1-methylxanthine (IBMX, Sigma), 1 μM dexamethasone (DEX), and penicillin-streptomycin (Gibco BRL), each 50,000 units, for two days to increase the counts of the cells to a density of approximately 3×10^4 cells/cm^2. Thereafter, the cells were further cultured for 12 days in DMEM free of IBMX and DEX while the medium was refreshed every other day. Cell culturing was carried out in a CO2 incubator at 37° C. under a wet, 5% CO2 atmosphere.
After culturing, the cells were treated with Oil-Red-O, which specifically dyes oil, to observe oil deposits formed in adipocytes. In this connection, the medium was depleted, after which 10 ml of a cacodylate buffer (90 mM cacodylate, pH 7.2, 2% formaldehyde, 2.5% glutaraldehyde, 0.025% CaCl2, 5% sucrose) was added to the cells, which was then allowed to stand at 4° C. for 1 hour. After removal of the buffer, 5 ml of Oil-Red-O in 40% isopropanol was added to the cells and slowly mixed over 1 hour, followed by washing with 40% isopropanol.
The effect of NADPH, a metabolic product of IDPc, on the deposition of cellular oils was quantitatively measured with Oil-Red-O, a dye specific for lipids. […]

[2] = biological target: isocitrate dehydrogenase (Mus musculus, UniProt O88844); assay: Screening of inhibitors against isocitrate dehydrogenase (spectrophotometry, absorbance at 340 nm); format: biochemical; settings: change in absorbance at 340 nm with time, 25° C.
Chain of isocitrate dehydrogenase (O88844 whole entry): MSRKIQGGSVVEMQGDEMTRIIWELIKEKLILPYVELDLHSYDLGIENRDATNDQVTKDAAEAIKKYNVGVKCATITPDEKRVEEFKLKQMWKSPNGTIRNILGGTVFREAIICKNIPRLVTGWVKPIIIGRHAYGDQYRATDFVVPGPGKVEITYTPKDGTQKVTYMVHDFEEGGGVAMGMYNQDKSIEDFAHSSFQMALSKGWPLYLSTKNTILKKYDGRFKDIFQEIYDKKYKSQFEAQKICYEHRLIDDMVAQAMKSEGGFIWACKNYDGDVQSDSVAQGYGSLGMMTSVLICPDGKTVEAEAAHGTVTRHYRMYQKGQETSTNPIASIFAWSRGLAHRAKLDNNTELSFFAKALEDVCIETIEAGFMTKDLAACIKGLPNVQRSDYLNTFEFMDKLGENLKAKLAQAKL
Procedure: In this connection, spectrophotometry is very useful. In more detail, first, a spectrophotometer is adjusted to zero absorbance at 340 nm using a mixture of a ten-fold concentrated reaction buffer plus 3rd distilled water. After a crystal cuvette containing the 10× buffer, a test sample and 3rd distilled water is installed in the spectrophotometer, isocitrate dehydrogenase is added to the cuvette and a measurement is made of the change in absorbance at 340 nm with time.
Because an absorbance decreases faster in the cuvette containing a greater concentration of a sample inhibitory against the activity of the enzyme, the analysis of the spectrophotometric data enables the screening of inhibitors of isocitrate dehydrogenase.
An assay buffer (50 mM MOPS, pH 7.2, 35.5 mM triethanolamine, pH 7.2, 2 mM NADP^+, 2 mM MgCl2, 5 mM isocitrate, rotenone 1 mg/ml) and test samples were all prepared at 10× concentration. Enzymatic reactions necessary for the selection were conducted in a final volume of 1 ml at 25° C. in crystal cuvette. For use, the concentrated test samples were diluted with 3rd distilled water. The assay buffer, enzyme inhibitors, and isocitrate dehydrogenase, which all at 10× concentration, were maintained at low temperature, i.e., in ice.
A spectrophotometer was first subjected to null adjustment at 340 nm using the 10× assay buffer and 3rd distilled water. 100 μl of the sample was added, along with 100 μl of the 10× assay buffer, in a crystal cuvette, and mixed with 600 μl of 3rd distilled water. After the completion of the null adjustment, the sample cuvette was installed in the spectrophotometer, followed by adding 200 μl of isocitrate dehydrogenase and mixing the solution with the aid of a pipette. Changes in absorbance at 340 nm were monitored with time. In principle, an absorbance decreases faster in the cuvette containing a greater concentration of a sample inhibitory against the activity of the enzyme. Based on this principle, the quantification of the spectrophotometric data enabled the screening of inhibitors of isocitrate dehydrogenase.

[3] = system: 3T3-L1 cells; assay: Prevention of oil deposition in 3T3-L1 by isocitrate dehydrogenase inhibitor (Oil-Red-O); format: cell-based, mouse; settings: cells treated with inhibitor vs no isocitrate inhibitors, FIG. 9
Text: After being treated with the isocitrate dehydrogenase inhibitors methyl isocitric acid and oxalomalic acid, 3T3-L1 cells, which remain undifferentiated, were examined for their differentiation to adipocytes. Effects of the isocitrate dehydrogenase inhibitors on fatty acid synthesis could be identified through the visualization using Oil-Red-O, a oil-specific dye.

[4] = system: rats; assay: Restrictive effect of isocitrate dehydrogenase inhibitor on obesity in rats; format: in vivo, rat
Procedure: 26 weeks after birth, rats were compared for cellular lipid deposition when they were treated with no isocitrate dehydrogenase inhibitors and methyl isocitric acid.
A container suitable for receiving a rat was placed on a scale which was then subjected to null adjustment, after which a rat was carefully put in the container.
The livers and adipose tissues taken from inhibitor-administered rats and non-administered rats were homogenized in a buffer (0.32 M sucrose, 0.01 M Tris-Cl pH 7.4) and centrifuged at 3,000×g for 10 min. Again, the supernatant was centrifuged at 10,000×g for 15 min. A pure cytosolic fraction was obtained as the supernatant. The enzyme activity of IDPc was determined by measuring the change in the production amount of NADPH in a buffer (50 mM MOPS, pH 7.2, 35.5 mM triethanolamine, pH 7.2, 2 mM NADP^+, 2 mM MgCl2, 5 mM isocitrate, and rotenone 1 μg/ml) maintained at 25° C. Using a spectrophotometer, absorbance at 340 nm was measured for 2 min to quantify the amount of NADPH produced by the IDPc contained in the cytoplasmic protein, thereby determining the enzyme activity of IDPc. For the quantification of the enzyme, the amount which produced 1 μM of NADPH in 1 min was defined as 1 unit. Protein quantification was performed according to the Bradford assay.
In order to measure the blood triglyceride levels and total cholesterol, assay kits manufactured by Asan Pharmaceutics. Co. Ltd. were used. After being treated with an anti-coagulant, blood taken from the inhibitor-administered rats and non-administered rats was centrifuged to obtain sera. 10 μl of each of the sera was mixed with 1.5 ml of a triglyceride-assay kit [a solution of lipoproteinase 10800 U, glycerol kinase 5.4 U, peroxidase 135000 U, and L-α-glycerophosphate oxidase 160 U in 72 ml of N,N-bis(2-hydroxyethyl)-2-aminomethanesulfonic acid buffer] or 1.5 ml of a cholesterol enzyme-assay kit (a mixture of an enzyme solution (cholesterol esterase 20.5 KU/l, cholesterol oxidase 10.7 KU/l, and sodium hydroxide 1.81 g/l) and a buffer (potassium monophosphate 13.6 g/l, phenol 1.88 g/l) in the proportions of 1:1) and incubated at 37° C. for 5 min for reaction. In a microplate reader, a measurement was done by reading absorbance at 500 nm for cholesterol and at 540 nm for triglyceride, so as to quantify blood levels of triglyceride and total cholesterol. In connection to the quantification of triglyceride and cholesterol, there was utilized a standard curve which was obtained by applying the above procedure to various known concentrations of a standard solution.
A predetermined amount of the liver was taken from both the inhibitor-administered mice and non-administered mice and homogenized in 1 ml of CIAA (chloroform:isoamyl alcohol=2:1 v/v). 100 μl of the homogenate was dissolved in 200 μl of pure ethyl alcohol and mixed with 500 μl of each of the assay kits for triglyceride and cholesterol, manufactured by Asan Pharmaceutics, Co. Ltd., containing 0.5% Triton X-100 and 3 mM sodium cholate, followed by incubation at 37° C. for 10 min. After being added with 800 μl of water, each sample was measured for liver triglyceride and total cholesterol levels with the aid of a microplate reader in the same manner as in above. Likewise, the above procedure was applied to various known concentrations of a standard solution to acquire a standard curve which was used to quantify triglyceride and cholesterol levels in the liver.

Structure (SMILES): NC(=O)C1=CN([C@@H]2O[C@H](COP(=O)(O)OP(=O)(O)OC[C@H]3O[C@@H](n4cnc5c(N)ncnc54)[C@H](OP(=O)(O)O)[C@@H]3O)[C@@H](O)[C@H]2O)C=CC1 [NADPH]
oil deposits formed within cells (Oil-Red-O) ([1]; NADPH added at 0 μM, 25 μM and 50 μM to the media during differentiation into adipocytes): accumulated greater amounts of oils; also recorded: larger intracellular lipid deposits
differentiation of adipocytes ([1]; differentiated in the presence of NADPH, increasing concentration): direct positive influence on the differentiation of adipocytes; also recorded: higher differentiation rates

Structure (SMILES): CC(NC(C)(C)C)C(=O)c1cccc(Cl)c1 (stereo not shown) [bupropion]
inhibitory activity against isocitrate dehydrogenase [2]: only a little inhibitory activity; also recorded: a little inhibitory effect

Structure (SMILES): CC(O)(C(=O)O)C(CC(=O)O)C(=O)O (stereo not shown) [methyl isocitric acid]
inhibitory activity against isocitrate dehydrogenase [2]: strong inhibitory activity; also recorded: definite inhibitory activity
cellular oil deposits dyed with Oil-Red-O [3]: reducing cellular oil deposits
arteriosclerosis index, lower [4]: 10
body weight, inhibitor-administered vs non-administered rats ([4]; 10-weeks old): No significant difference
weight of epididymal fat pad, lower compared to non-administered rats ([4]; FIG. 10a): about 12%
weight of the liver, inhibitor-administered vs normal rats ([4]; FIG. 10a): no difference
blood level of total cholesterol, lower compared to non-administered rats ([4]; FIG. 10b): 11%
blood level of triglyceride, lower compared to non-administered rats ([4]; FIG. 10b): 20%
high-density lipoproteins (HDL) level, higher compared to non-administered rats ([4]; blood, FIG. 10c): 11%

Structure (SMILES): NC(=O)c1cccnc1 [nicotine amide]
inhibitory activity against isocitrate dehydrogenase [2]: No inhibitory activity

inhibitory activity against isocitrate dehydrogenase [2]: No inhibitory activity
Structure (SMILES): O=C(O)c1cccnc1 [nicotinic acid]

Structure (SMILES): O=C(O)C(=O)C(C(=O)O)C(O)C(=O)O (stereo not shown) [oxalomalic acid]
inhibitory activity against isocitrate dehydrogenase [2]: strong inhibitory activity; also recorded: definite inhibitory activity
cellular oil deposits dyed with Oil-Red-O [3]: reducing cellular oil deposits
